In ChEMBL document CHEMBL3132744, “Structureactivity relationship studies of miniproteins targeting the androgen receptorcoactivator interaction” (Medchemcomm, 2013):
Square brackets hold non-standard residues; d marks the D form. Peptide text beside a SMILES is read from it. Phe(4-Cl) = N[C@@H](Cc1ccc(Cl)cc1)C(=O)O; Phe(2-Cl) = N[C@@H](Cc1ccccc1Cl)C(=O)O; Cha = N[C@@H](CC1CCCCC1)C(=O)O

Molecular target: T1, Androgen receptor (Homo sapiens, UniProt P10275)
T1 sequence (P10275 whole entry): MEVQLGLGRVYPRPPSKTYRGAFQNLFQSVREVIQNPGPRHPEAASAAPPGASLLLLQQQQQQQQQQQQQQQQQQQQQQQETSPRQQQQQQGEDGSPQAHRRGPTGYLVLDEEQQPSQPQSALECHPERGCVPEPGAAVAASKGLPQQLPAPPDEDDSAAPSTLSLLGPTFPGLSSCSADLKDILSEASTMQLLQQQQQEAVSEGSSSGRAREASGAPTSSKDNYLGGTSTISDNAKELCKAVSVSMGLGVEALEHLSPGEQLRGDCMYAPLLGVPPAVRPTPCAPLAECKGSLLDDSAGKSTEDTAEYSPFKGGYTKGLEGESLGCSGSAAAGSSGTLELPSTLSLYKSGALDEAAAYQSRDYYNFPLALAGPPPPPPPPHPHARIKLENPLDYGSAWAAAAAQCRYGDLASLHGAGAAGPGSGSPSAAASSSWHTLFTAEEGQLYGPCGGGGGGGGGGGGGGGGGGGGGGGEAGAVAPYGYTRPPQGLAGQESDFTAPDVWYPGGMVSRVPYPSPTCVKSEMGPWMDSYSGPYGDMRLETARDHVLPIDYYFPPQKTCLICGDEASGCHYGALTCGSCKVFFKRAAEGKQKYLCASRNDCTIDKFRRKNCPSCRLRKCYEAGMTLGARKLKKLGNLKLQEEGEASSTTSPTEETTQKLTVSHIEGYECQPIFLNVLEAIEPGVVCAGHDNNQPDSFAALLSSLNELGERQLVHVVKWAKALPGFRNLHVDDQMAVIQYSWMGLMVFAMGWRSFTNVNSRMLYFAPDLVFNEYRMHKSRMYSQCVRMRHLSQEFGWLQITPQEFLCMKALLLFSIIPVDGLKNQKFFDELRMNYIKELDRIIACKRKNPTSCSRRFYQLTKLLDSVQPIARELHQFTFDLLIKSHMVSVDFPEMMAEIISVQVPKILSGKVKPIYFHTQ
Assay: Displacement of fluorescein-CSSRFESLFAGEKESR from human androgen receptor-LBD after 1 hr by fluorescence polarization assay

Ki | SMILES
11000 nM | CC[C@H](C)[C@H](NC(=O)[C@H](CS)NC(=O)[C@H](Cc1ccccc1)NC(=O)[C@H](CC(C)C)NC(=O)[C@H](CCC(=O)O)NC(=O)[C@H](CS)NC(=O)[C@H](CC1CCCCC1)NC(=O)[C@H](CCCNC(=N)N)NC(=O)[C@@H](N)CC(N)=O)C(=O)N[C@@H](CCC(N)=O)C(=O)NCC(=O)N[C@H](C(=O)NCC(=O)N[C@@H](CC(=O)O)C(=O)N[C@H](C(=O)N[C@@H](CCCCN)C(=O)N[C@@H](C)C(=O)N[C@@H](CS)C(=O)N[C@@H](CCC(=O)O)C(=O)N[C@@H](Cc1c[nH]c2ccccc12)C(=O)N[C@@H](C)C(=O)N[C@@H](CS)C(=O)N[C@@H](CCC(N)=O)C(=O)O)C(C)C)[C@@H](C)O (H-NR[Cha]CELFCIQGTGDVKACEWACQ-OH)
2200 nM | CC[C@H](C)[C@H](NC(=O)[C@H](CS)NC(=O)[C@H](Cc1ccccc1)NC(=O)[C@H](CC(C)C)NC(=O)[C@H](CCC(=O)O)NC(=O)[C@H](CS)NC(=O)[C@H](Cc1ccccc1Cl)NC(=O)[C@H](CCCNC(=N)N)NC(=O)[C@@H](N)CC(N)=O)C(=O)N[C@@H](CCC(N)=O)C(=O)NCC(=O)N[C@H](C(=O)NCC(=O)N[C@@H](CC(=O)O)C(=O)N[C@H](C(=O)N[C@@H](CCCCN)C(=O)N[C@@H](C)C(=O)N[C@@H](CS)C(=O)N[C@@H](CCC(=O)O)C(=O)N[C@@H](Cc1c[nH]c2ccccc12)C(=O)N[C@@H](C)C(=O)N[C@@H](CS)C(=O)N[C@@H](CCC(N)=O)C(=O)O)C(C)C)[C@@H](C)O (H-NR[Phe(2-Cl)]CELFCIQGTGDVKACEWACQ-OH)
2300 nM | CC[C@H](C)[C@H](NC(=O)[C@H](CS)NC(=O)[C@H](Cc1ccccc1)NC(=O)[C@H](CC(C)C)NC(=O)[C@H](CCC(=O)O)NC(=O)[C@H](CS)NC(=O)[C@H](Cc1ccc(Cl)cc1)NC(=O)[C@H](CCCNC(=N)N)NC(=O)[C@@H](N)CC(N)=O)C(=O)N[C@@H](CCC(N)=O)C(=O)NCC(=O)N[C@H](C(=O)NCC(=O)N[C@@H](CC(=O)O)C(=O)N[C@H](C(=O)N[C@@H](CCCCN)C(=O)N[C@@H](C)C(=O)N[C@@H](CS)C(=O)N[C@@H](CCC(=O)O)C(=O)N[C@@H](Cc1c[nH]c2ccccc12)C(=O)N[C@@H](C)C(=O)N[C@@H](CS)C(=O)N[C@@H](CCC(N)=O)C(=O)O)C(C)C)[C@@H](C)O (H-NR[Phe(4-Cl)]CELFCIQGTGDVKACEWACQ-OH)
2500 nM | CC[C@H](C)[C@H](NC(=O)[C@H](CS)NC(=O)[C@H](Cc1ccccc1)NC(=O)[C@H](CC(C)C)NC(=O)[C@H](CCC(=O)O)NC(=O)[C@H](CS)NC(=O)[C@H](Cc1ccccc1)NC(=O)[C@H](CCCNC(=N)N)NC(=O)[C@@H](N)CO)C(=O)N[C@@H](CCC(N)=O)C(=O)NCC(=O)N[C@H](C(=O)NCC(=O)N[C@@H](CC(=O)O)C(=O)N[C@H](C(=O)N[C@@H](CCCCN)C(=O)N[C@@H](C)C(=O)N[C@@H](CS)C(=O)N[C@@H](CCC(=O)O)C(=O)N[C@@H](Cc1c[nH]c2ccccc12)C(=O)N[C@@H](C)C(=O)N[C@@H](CS)C(=O)N[C@@H](CCC(N)=O)C(=O)O)C(C)C)[C@@H](C)O (H-SRFCELFCIQGTGDVKACEWACQ-OH)
